In general, IC50 refers to the concentration that gives 50% inhibition. As usually defined, the Ki is a measure of affinity in units of concentration, obtained from inhibition or displacement.

“And” between values parts separate entries of the source, which are not always exact repeats. Equal entries are not always repeated.

The nature of assay [1]: DPPH radical scavenging activity assay. To be noted: DPPH 0.20 mM in methanol, 45 min in the dark, mean ± SD. The protocol: The test compounds at various concentration ranging from (0 to 40 µM) in DMSO were mixed with a solution of DPPH (0.20 mM) in methanol. […] All tests and analyses were run in triplicate and averaged. The inhibition was calculated in terms of percentage using the formula below:DPPH radical scavenged (%) = [(AbC ‒ AbS)/AbC] × 100(2) where AbC is absorbance of control and AbS the absorbance of the test sample.
(In general: DPPH is a stable violet radical that fades when it is reduced.)

The target in assay [2] is acetylcholinesterase (AChE) (Homo sapiens, UniProt P22303). In words: biochemical. The following applies: for SI BChE/AChE: AChE selectivity index = IC50 (BChE)/IC50 (AChE); for IC50: mean ± SD, three independent experiments. In kind it is biochemical. As for the experimental part:
(§1) The IC50 and standard deviation values were determined graphically using Graph Pad Prism.

The target in assay [3] is butyrylcholinesterase (BChE) (Homo sapiens, UniProt P06276). Put plainly: biochemical. To be noted: for SI AChE/BChE: BChE selectivity index = IC50 (AChE)/IC50 (BChE); for IC50: mean ± SD, three independent experiments. As for the experimental part: as §1
In assay [4] the target is T1, β-secretase (BACE-1) (Homo sapiens, UniProt P56817).
T1 construct: purchased Pan Vera; host or cells: baculovirus expression system
In words: In vitro β-secretase inhibitory FRET assay. To be noted: 60 min incubation, read-out: IC50 (µM) against β-secretase activity. In kind it is biochemical. The protocol:
The inhibition ratio was calculated using the following equation:Inhibition (%) = [1 − (S − S0)/(C − C0)] × 100(1) where C is the fluorescence of control (enzyme, assay buffer, and substrate) after 60 min of incubation, C0 is the fluorescence of control at time 0, S is the fluorescence of tested samples (enzyme, sample solution, and substrate) after 60 min of incubation, and S0 the fluorescence of the tested samples at time 0.

Another assay deals with AChE (Homo sapiens, UniProt P22303). In words: Kinetic study against AChE (Lineweaver–Burk and Dixon plots). In kind it is biochemical. The protocol:
(§2) The Lineweaver–Burk plots were drawn to determine the type of inhibition these compounds display against AChE and BChE (refer to Figure S2. In the Supplementary Material for the corresponding graphs).
(§3) Kinetic evaluation of 2l and 2p against ChEs or β-secretase were conducted following similar procedures previously employed for the corresponding flavonol precursors.

Another assay has as its target BChE (Homo sapiens, UniProt P06276). Put plainly: Kinetic study against BChE (Lineweaver–Burk and Dixon plots). Format: biochemical. As for the experimental part:
as §2, §3

The target in assay [5] is T1, β-secretase (BACE-1). In words: Kinetic study against β-secretase (Lineweaver–Burk and Dixon plots). Format: biochemical. As for the experimental part:
as §2, §3

T1 sequence (P56817 46-501): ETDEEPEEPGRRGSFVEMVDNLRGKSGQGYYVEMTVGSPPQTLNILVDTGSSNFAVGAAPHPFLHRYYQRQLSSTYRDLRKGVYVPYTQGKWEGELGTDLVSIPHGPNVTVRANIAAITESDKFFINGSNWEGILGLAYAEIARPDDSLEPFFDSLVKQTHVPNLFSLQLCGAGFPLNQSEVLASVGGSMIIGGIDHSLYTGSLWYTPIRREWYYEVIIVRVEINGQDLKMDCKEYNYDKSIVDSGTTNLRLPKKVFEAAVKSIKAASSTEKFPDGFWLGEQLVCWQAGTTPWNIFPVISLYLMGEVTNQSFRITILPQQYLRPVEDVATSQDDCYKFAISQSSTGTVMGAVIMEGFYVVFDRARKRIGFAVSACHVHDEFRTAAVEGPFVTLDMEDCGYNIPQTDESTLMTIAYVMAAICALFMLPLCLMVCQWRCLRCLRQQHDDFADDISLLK
Chain of acetylcholinesterase (AChE) (P22303 32-614): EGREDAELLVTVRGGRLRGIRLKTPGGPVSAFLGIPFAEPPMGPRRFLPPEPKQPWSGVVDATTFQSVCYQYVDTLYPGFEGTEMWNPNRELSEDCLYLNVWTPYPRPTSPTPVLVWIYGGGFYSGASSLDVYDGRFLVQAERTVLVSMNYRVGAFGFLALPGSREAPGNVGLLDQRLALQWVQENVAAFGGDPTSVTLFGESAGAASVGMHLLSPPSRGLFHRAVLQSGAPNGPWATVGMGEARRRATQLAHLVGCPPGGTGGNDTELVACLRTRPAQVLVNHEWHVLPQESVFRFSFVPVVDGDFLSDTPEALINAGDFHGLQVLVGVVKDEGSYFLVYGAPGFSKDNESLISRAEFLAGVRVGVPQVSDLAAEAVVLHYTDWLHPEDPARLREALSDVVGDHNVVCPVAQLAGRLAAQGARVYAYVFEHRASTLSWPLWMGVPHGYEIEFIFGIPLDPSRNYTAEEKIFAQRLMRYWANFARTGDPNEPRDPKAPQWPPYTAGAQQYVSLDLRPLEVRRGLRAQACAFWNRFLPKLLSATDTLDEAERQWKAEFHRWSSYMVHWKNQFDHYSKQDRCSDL
Chain of butyrylcholinesterase (BChE) (P06276 29-602): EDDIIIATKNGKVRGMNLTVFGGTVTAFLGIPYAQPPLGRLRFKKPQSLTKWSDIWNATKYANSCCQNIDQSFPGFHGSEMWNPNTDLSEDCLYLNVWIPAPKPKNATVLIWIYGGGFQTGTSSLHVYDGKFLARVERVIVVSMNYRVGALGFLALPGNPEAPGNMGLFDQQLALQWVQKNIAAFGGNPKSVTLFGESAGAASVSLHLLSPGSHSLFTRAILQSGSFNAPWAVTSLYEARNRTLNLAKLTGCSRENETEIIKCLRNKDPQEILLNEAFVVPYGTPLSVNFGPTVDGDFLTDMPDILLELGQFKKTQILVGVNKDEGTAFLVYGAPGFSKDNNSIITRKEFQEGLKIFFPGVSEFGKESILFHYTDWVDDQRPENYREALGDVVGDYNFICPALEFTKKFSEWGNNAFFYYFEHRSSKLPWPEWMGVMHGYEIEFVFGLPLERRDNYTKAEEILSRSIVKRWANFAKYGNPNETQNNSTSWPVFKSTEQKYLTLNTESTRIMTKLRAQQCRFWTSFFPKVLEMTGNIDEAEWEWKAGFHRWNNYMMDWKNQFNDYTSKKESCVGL
Chain of AChE (P22303 32-614): as the sequence (P22303 32-614) above
Chain of BChE (P06276 29-602): as the sequence (P06276 29-602) above

With `O=C1O[C@H]([C@@H](O)CO)C(O)=C1O` [Ascorbic acid, ascorbic acid, reference compound], inhibition in assay [1] was half-maximal at 5.5 ± 0.02 µM (IC50).
Consider `CC(=O)OC[C@H]1O[C@@H](Oc2c(-c3ccccc3)oc3cc(F)c(I)cc3c2=O)[C@H](OC(C)=O)[C@@H](OC(C)=O)[C@@H]1OC(C)=O` [Compound 2a, 7-Fluoro-6-iodo-2-phenyl-4H-chromen-4-one-3-O-2,3,4,6-O-tetraacetyl-β-d-glucopyranoside], for which, in assay [2], the “SI BChE/AChE” value is on record as 1.40 and the IC50 amounted to 18.72 ± 0.03 µM. In assay [3], the “SI AChE/BChE” value turned out to be 0.71 and the IC50 worked out at 26.17 ± 0.01 µM.
For `CC(=O)OC[C@H]1O[C@@H](Oc2c(-c3ccc(F)cc3)oc3cc(F)c(I)cc3c2=O)[C@H](OC(C)=O)[C@@H](OC(C)=O)[C@@H]1OC(C)=O` [Compound 2b, 7-Fluoro-(4-fluorophenyl)-6-iodo-4H-chromen-4-one-3-O-2,3,4,6-O-tetraacetyl-β-d-glucopyranoside], in that order: 0.78, 28.2 ± 0.02 µM, 1.3 and 21.9 ± 0.04 µM.
For the compound `CC(=O)OC[C@H]1O[C@@H](Oc2c(-c3ccc(Cl)cc3)oc3cc(F)c(I)cc3c2=O)[C@H](OC(C)=O)[C@@H](OC(C)=O)[C@@H]1OC(C)=O` [Compound 2c, 7-Fluoro-2-(4-Chlorophenyl)-6-iodo-4H-chromen-4-one-3-O-2,3,4,6-O-tetraacetyl-β-d-glucopyranoside], in assay [2], the “SI BChE/AChE” value was found to be 1.25 and the IC50 is 24.74 ± 0.03 µM. For the same compound, in assay [3], the “SI AChE/BChE” value is 0.80 and the IC50 was 30.84 ± 0.04 µM.
For `COc1ccc(-c2oc3cc(F)c(I)cc3c(=O)c2O[C@@H]2O[C@H](COC(C)=O)[C@@H](OC(C)=O)[C@H](OC(C)=O)[C@H]2OC(C)=O)cc1` [Compound 2d, 7-Fluoro-6-iodo-2-(4-methoxyphenyl)-4H-chromen-4-one-3-O-2,3,4,6-O-tetraacetyl-β-d-glucopyranoside], in that order: 0.32, 60.4 ± 0.05 µM, 3.13 and 19.25 ± 0.11 µM.
The matching figures for `CC(=O)OCC1OC(Oc2c(-c3ccccc3)oc3cc(Cl)c(I)cc3c2=O)C(OC(C)=O)C(OC(C)=O)C1OC(C)=O` (stereo not drawn) [Compound 2e, 7-Chloro-6-iodo-2-phenyl-4H-chromen-4-one-3-O-2,3,4,6-O-tetraacetyl-β-d-glucopyranoside]: 0.26, 34.44 ± 0.03 µM, 3.85 and 9.03 ± 0.12 µM.
The matching figures for `CC(=O)OC[C@H]1O[C@@H](Oc2c(-c3ccc(F)cc3)oc3cc(Cl)c(I)cc3c2=O)[C@H](OC(C)=O)[C@@H](OC(C)=O)[C@@H]1OC(C)=O` [Compound 2f, 7-Chloro-2-(4-fluorophenyl)-6-iodo-4H-chromen-4-one-3-O-2,3,4,6-O-tetraacetyl-β-d-glucopyranoside]: 0.44, 70.66 ± 0.01 µM, 2.27 and 31.09 ± 0.04 µM.
Take `CC(=O)OCC1OC(Oc2c(-c3ccc(Cl)cc3)oc3cc(Cl)c(I)cc3c2=O)C(OC(C)=O)C(OC(C)=O)C1OC(C)=O` (stereo not drawn) [Compound 2g, 7-Chloro-2-(4-chlorophenyl)-6-iodo-4H-chromen-4-one-3-O-2,3,4,6-O-tetraacetyl-β-d-glucopyranoside]: in assay [2], the “SI BChE/AChE” value is given as 0.23 and the IC50 was 31.44 ± 0.13 µM. In assay [3], the “SI AChE/BChE” value came out at 4.35 and the IC50 came out at 7.15 ± 0.01 µM. This compound also returned an IC50 in assay [1] of 13.1 ± 0.01 µM.
Turning to `COc1ccc(-c2oc3cc(Cl)c(I)cc3c(=O)c2O[C@@H]2O[C@H](COC(C)=O)[C@@H](OC(C)=O)[C@H](OC(C)=O)[C@H]2OC(C)=O)cc1` [Compound 2h, 7-Chloro-6-iodo-2-(4-methoxyphenyl)-4H-chromen-4-one-3-O-2,3,4,6-O-tetraacetyl-β-d-glucopyranoside], in assay [2], the “SI BChE/AChE” value is 0.39 and the IC50 was determined as 25.92 ± 0.02 µM. Besides, in assay [3], the “SI AChE/BChE” value came out at 2.56 and the half-maximal inhibitory concentration (IC50) was 10.1 ± 0.06 µM.
For the compound `CC(=O)OC[C@H]1O[C@@H](Oc2c(-c3ccccc3)oc3cc(Br)c(I)cc3c2=O)[C@H](OC(C)=O)[C@@H](OC(C)=O)[C@@H]1OC(C)=O` [Compound 2i, 7-Bromo-6-iodo-2-phenyl-4H-chromen-4-one-3-O-2,3,4,6-O-tetraacetyl-β-d-glucopyranoside], in assay [2], the “SI BChE/AChE” value came to 0.14 and half-maximal inhibition (IC50) was put at 70.56 ± 0.03 µM. Besides, in assay [3], the “SI AChE/BChE” value turned out to be 7.14 and the IC50 came out at 9.79 ± 0.04 µM.
For the compound `CC(=O)OC[C@H]1O[C@@H](Oc2c(-c3ccc(F)cc3)oc3cc(Br)c(I)cc3c2=O)[C@H](OC(C)=O)[C@@H](OC(C)=O)[C@@H]1OC(C)=O` [Compound 2j, 7-Bromo-2-(4-fluorophenyl)-6-iodo-4H-chromen-4-one-3-O-2,3,4,6-O-tetraacetyl-β-d-glucopyranoside], in assay [2], the “SI BChE/AChE” value came to 1.31 and half-maximal inhibition (IC50) was put at 31.2 ± 0.05 µM. In addition, in assay [3], the “SI AChE/BChE” value is reported as 0.76 and the IC50 worked out at 40.93 ± 0.04 µM.
Take `CC(=O)OCC1OC(Oc2c(-c3ccc(Cl)cc3)oc3cc(Br)c(I)cc3c2=O)C(OC(C)=O)C(OC(C)=O)C1OC(C)=O` (stereo not drawn) [Compound 2k, 7-Bromo-2-(4-chlorophenyl)-6-iodo-4H-chromen-4-one-3-O-2,3,4,6-O-tetraacetyl-β-d-glucopyranoside]: in assay [2], the “SI BChE/AChE” value worked out at 5.78 and the 50% inhibitory concentration (IC50) worked out at 5.18 ± 0.01 µM. In assay [3], the “SI AChE/BChE” value is reported as 0.17 and inhibition was half-maximal at 29.95 ± 0.02 µM (IC50). Moreover, in assay [1], it took 11.4 ± 0.02 µM to reach half-maximal inhibition (IC50).
Consider `COc1ccc(-c2oc3cc(Br)c(I)cc3c(=O)c2OC2OC(COC(C)=O)C(OC(C)=O)C(OC(C)=O)C2OC(C)=O)cc1` (stereo not drawn) [Compound 2l, 7-Bromo-6-iodo-2-(4-methoxyphenyl)-4H-chromen-4-one-3-O-2,3,4,6-O-tetraacetyl-β-d-glucopyranoside], for which the “SI BChE/AChE” value in assay [2] worked out at 1.43. The IC50 in assay [2] was found to be 5.05 ± 0.02 µM; in assay [3], 7.24 ± 0.03 µM; at β-secretase (BACE-1) [4], 18.3 ± 0.01 µM; in assay [1], 21.6 ± 0.03 µM. Moreover, the “SI AChE/BChE” value in assay [3] came to 0.70. Besides, the “Mode of inhibition of AChE” value at AChE (Lineweaver–Burk plot) was “non-competitive”. Further, the Ki is 1.38 ± 0.62 µM at AChE (from Dixon plots, read-out: Inhibition constant (Ki) against AChE); 1.51 ± 0.04 µM on BChE (from Dixon plots); 2.42 ± 0.05 µM at β-secretase (BACE-1) [5] (from Dixon plots, read-out: Ki for inhibition of β-secretase). Further, the “Mode of inhibition of BChE” value on BChE (Lineweaver–Burk plot) is reported as “non-competitive”. The “Mode of inhibition of β-secretase” value at β-secretase (BACE-1) [5] (Lineweaver–Burk plot) was “non-competitive”.
Consider `COc1cc2oc(-c3ccccc3)c(O[C@@H]3O[C@H](COC(C)=O)[C@@H](OC(C)=O)[C@H](OC(C)=O)[C@H]3OC(C)=O)c(=O)c2cc1I` [Compound 2m, 6-Iodo-7-methoxy-2-phenyl-4H-chromen-4-one-3-O-2,3,4,6-O-tetraacetyl-β-d-glucopyranoside], for which, in assay [2], the “SI BChE/AChE” value turned out to be 0.53 and the IC50 was 56.21 ± 0.01 µM. Moreover, in assay [3], the “SI AChE/BChE” value is recorded as 1.89 and the IC50 amounted to 29.8 ± 0.06 µM.
For `COc1cc2oc(-c3ccc(F)cc3)c(OC3OC(COC(C)=O)C(OC(C)=O)C(OC(C)=O)C3OC(C)=O)c(=O)c2cc1I` (stereo not drawn) [Compound 2n, 2-(4-Fluorophenyl)-6-Iodo-7-methoxy-4H-chromen-4-one-3-O-2,3,4,6-O-tetraacetyl-β-d-glucopyranoside], in assay [2], the “SI BChE/AChE” value is 5.49; the IC50 was 6.33 µM and 6.23 µM. Further, in assay [3], the “SI AChE/BChE” value stood at 0.18 and the IC50 worked out at 34.21 ± 0.02 µM. This compound registered an IC50 in assay [1] of 14.4 ± 0.02 µM.
Consider `COc1cc2oc(-c3ccc(Cl)cc3)c(O[C@@H]3O[C@H](COC(C)=O)[C@@H](OC(C)=O)[C@H](OC(C)=O)[C@H]3OC(C)=O)c(=O)c2cc1I` [Compound 2o, 2-(4-Chlorophenyl)-6-iodo-7-methoxy-4H-chromen-4-one-3-O-2,3,4,6-O-tetraacetyl-β-d-glucopyranoside], for which, in assay [2], the “SI BChE/AChE” value came to 1.28 and it took 28.12 ± 0.06 µM to reach half-maximal inhibition (IC50). In assay [3], the “SI AChE/BChE” value is listed as 0.78 and it took 36.1 ± 0.02 µM to reach half-maximal inhibition (IC50).
Take `O=c1c(O)c(-c2ccc(O)c(O)c2)oc2cc(O)cc(O)c12` [Quercetin, quercetin, reference compound]: in assay [1], the IC50 is 3.1 µM.

The values above are taken from article PMC6804162, “Inhibitory Effects of Novel 7-Substituted 6-iodo-3-O-Flavonol Glycosides against Cholinesterases and β-secretase Activities, and Evaluation for Potential Antioxidant Properties” (Molecules, 2019).
